Measurements: PMC4838890, “Dynamic and flexible H3K9me3 bridging via HP1β dimerization establishes a plastic state of condensed chromatin” (Nature Communications, 2016)
Entries after “also recorded” stand apart in the source; their conditions may differ.

Assays:
[1] = target: T1, H3K9me3 peptide (Homo sapiens, UniProt P68431); assay: Pull-down, immobilized H3K9me3 peptide; format: binding; conditions: H3-tail peptides densely immobilized on magnetic beads, 100 pmol protein, 150 mM NaCl, 4°C
T1 construct: C-terminally biotinylated histone H3 peptides (aa 1–20)
Experimental: 4 μg C-terminally biotinylated histone H3 peptides (aa 1–20) or 1 μg of biotinylated nucleosomes or oligonucleosomal arrays were incubated with 40 μl Streptavidin MagnaSphere Paramagmetic beads (Promega, Mannheim, Germany) in 350 μl binding buffer (10 mM triethanolamine (pH 7.5), 150 mM NaCl, 0.1 mM EDTA, 0.1% (v/v) Triton-X100) supplemented with 1 mg ml^−1 BSA for 2.5 h at RT. Unbound material was removed by three washes with 0.5 ml binding buffer. Charged beads were then incubated with 100 pmol recombinant protein in 350 μl binding buffer for 1 h at 4°C on a rotator. Beads were washed three times with 0.5 ml binding buffer for 3 min per wash at 4°C. Bound proteins were eluted in 20 μl 1 × SDS loading buffer and by boiling for 5 min.
Supplementary Table 1: Summary of conditions used in the different experiments of this study. experiment result modification template Temp. [NaCl] [MgCl2] […]
chromatin Fig. 1e,f; Fig. S1f-h; H3K9me3 oligo- 4 150 5 coprecipitation Fig. S2b nucleosomes
Fig. S7d,f; Fig.S9c nucleosomes […]
chromatin sedimentation Fig. 4a; H3K9me3 oligo- 4 150 0
(single point) Fig. S3b nucleosomes […]
chromatin sedimentation. oligo-(titration) Fig. 3a H3K9me3 nucleosomes 4 150 0

[2] = test system: DNA fragment of 150 bp; assay: Electrophoretic mobility shift assay (EMSA); format: binding; conditions: 150 bp DNA, 0, 3, 9 μM protein, 100 mM NaCl, 5 mM MgCl2, RT
Experimental: 50 ng 150 bp DNA amplified from the backbone of pUC18 was incubated with 0, 3, 9 μM recombinant protein in 10 μl EMSA buffer (10 mM Tris-HCl (pH 8.0), 100 mM NaCl, 5 mM MgCl2) for 20 min at room temperature (RT). 2 μl 50% (v/v) glycerol was added and samples were loaded onto 6% native PAGE gels. After electrophoresis, DNA was visualized by staining with 1 × SYBR Gold/0.25 × TBE for 20 min at RT. Images were captured using a ChemiDoc MP Imaging System (Bio-Rad, München, Germany). […]
crosslinking Fig. S6e,f nucleosomes […]
crosslinking Fig. S7a,b nucleosomes
EMSA Fig. 1g; Fig. 5c; n//a RT 100 5
1Preincubation of oligonucleosomes and h HP1β was performed at 4 °C . Measurements wer e carried out at the in dicated te mperature.
2in increments o f 0 .5 mM
3MgCl2 was added at the end of incubation to coprecipitate oligonucleosomes a nd bound hHP1β.

[3] = test system: H3K9me3 oligonucleosomal templates containing tailless H2A, H2B or H4; assay: Chromatin sedimentation (clustering), H3K9me3 oligonucleosomes with tailless histones; format: biochemical, Xenopus laevis; conditions: 150 mM NaCl, n=3
Experimental: Figure 3 hHP1β clusters oligonuclesomal arrays in dependence of H3K9me3. (a) Oligonucleosomes (2.5 nM) were incubated with increasing concentrations of hHP1β WT or I161A at 150 mM NaCl. DNA remaining in the supernatant after centrifugation was incubated with EtBr and measured by fluorescence reading. Data were normalized to amounts in absence of added protein. Averages of three independent experiments are plotted; error bars represent s.d.; n=3. (b) Analysis of the hydrodynamic radius of oligonucleosomes (10 nM; DNA labelled with ATTO 610) in the presence of increasing concentrations of hHP1β WT or I161A by FCS at 150 mM NaCl. For details on experimental setup see Supplementary Fig. 3. Error bars represent s.d.; n=3. (c) Oligonucleosomes were reconstituted after mixing H3K9me0 and H3K9me3 octamers at different ratio. […] (d) Precipitation behaviour of oligonucleosomes (2.5 nM) was analysed at different concentrations of NaCl with hHP1β WT at saturating concentration. […] Precipitated material was analysed by western blotting. […] Complexes were fixed with 0.05% (v/v) glutaraldehyde, spotted on mica surfaces and analysed by scanning force microscopy. […] (h) Quantification of results representatively shown in g according to the classification on the top: A, extended; B, partially condensed; C, fully condensed; D; aggregates; n>50 for each condition. […]

[4] = test system: H3K9me3 oligonucleosomes in the absence of the H4 N-terminal tail; assay: Chromatin coprecipitation, H3K9me3 oligonucleosomes with tailless H4; format: binding, Xenopus laevis; conditions: 150 mM NaCl, western blot
Experimental: […] Precipitated chromatin complexes were recovered by centrifugation at 16,100g for 30 min at 4°C. Pellets were washed once with 0.5 ml binding buffer and centrifuged for 15 min at 4 °C. Precipitated material was resuspended in 10 μl 1 × SDS loading buffer and boiled for 5 min before running on SDS–PAGE.
Supplementary Table 1: Summary of conditions used in the different experiments of this study.
experiment result modification template Temp. [NaCl] [MgCl2]
chromatin Fig. 1e,f; Fig. S1f-h; H3K9me3 oligo- 4 150 5

| Substance | recovery on H3K9me3 peptide [1] | DNA binding [2] | clustering of oligonucleosomes with tailless histones [3] | recovery at 3.5 mM and 7.0 mM MgCl2 with tailless H4 chromatin [4] |
| --- | --- | --- | --- | --- |
| hHP1β I161A: CSD point mutant of hHP1β incapable of dimerization | significantly reduced recovery |  |  |  |
| hHP1β WT: recombinant human heterochromatin protein 1β (GenBank NM_001127228), 185 aa |  | hHP1α but not hHP1β showed a high level of general DNA binding | clustered H3K9me3 oligonucleosomes containing tailless H2A or H2B as efficiently as H3K9me3-oligonucleosomes containing WT core histones; also recorded: the effect on H3K9me3 oligonucleosomes containing tailless H4 was impaired | reduced recovery of hHP1β with H3K9me3 oligonucleosomes in the absence of the H4 N-terminal tail at 3.5 mM MgCl2; also recorded: recovery at 7.0 mM MgCl2 was comparable to the level obtained with H3K9me3 oligonucleosomes containing WT core histones |
